# Results reported in patent EP1429719B1, “ANTI-INFLAMMATORY DERMOCOSMETOLOGIC COMPOSITION IN PARTICULAR FOR TREATING ACNE AND SEBORRHEIC DERMATITIS” (Pierre Fabre Dermo-Cosmetique, priority 2001, dated 2003).
# Test system: prostaglandine 6KF1α
# Experiment: Production of prostaglandin 6KF1α by HaCaT human keratinocytes stimulated with calcium ionophore A23187 (ELISA)
# Assay type: cell-based, humain
# Conditions: 5 h culture; for PG6KF1α: n = 3
# From the text: Conformément à la présente invention, il a été mis en évidence une synergie d'activité anti-inflammatoire du lactamide et du glycyrrhétinate de zinc et/ou du glycyrrhétinate de stéaryl et/ou de glycyrrhétinate d'ammonium. Cette synergie a été objectivée à la suite d'une évaluation sur la production de prostaglandine 6KF1α par le kératynocyte humain.
# Dans cette étude, on s'est intéressé en particulier à une prostaglandine, la PG6KF1α, métabolite stable de la prostarycline, qui est un des métabolites majeurs produits par le kératinocyte stimulé, et représentatif de la modulation de la production des métabolites de l'acide arachidonique issus de la voie de la cyclo-oxygénase.
# Sur ce modèle, on a évalué l'activité du glycyrrhétinate de zinc en association avec le lactamide sur la production de PG6KF1α induite chez le kératinocyte par un stimulant de la cascade de l'acide arachidonique, le ionophore calcique A23187.
# On a réalisé ensuite la même étude en évaluant l'activité du stéaryl glycyrrhétinate en association avec le lactamide.
# La suspension de kératinocytes humains HaCaT dans le RPMI 10% SVF est distribuée dans les plaques 6 puits (1x106 cellules/2ml/puits) et incubée pendant 16 heures à 37°C dans une atmosphère à 5% CO2. Les kératinocytes sont alors rincés avec du PBS pour éliminer les cellules non-adhérentes puis exposés aux produits à tester inclus dans du RPMI sans SVF (qui pourrait interférer dans le dosage).
# Le lactamide MEA est directement solubilisé dans le RPMI sans SVF à une concentration de 1 0mg/ml.
# Le glycyrrhétinate de zinc est préparé dans l'éthanol absolu à 100 mg/ml puis repris dans le RPMI sans SVF à 10 mg/ml.
# Le stéaryl glycyrrhétinate est préparé dans le DMSO à […] puis repris dans le RPMI sans SVF à 10mg/ml.
# Le glycyrrhétinate d'ammonium est préparé dans l'éthanol absolu à 100 mg/ml puis repris dans le RPMI sans SVF à 25 mg/ml.
# Pour chaque lot, 3 puits sont réalisés. Les cellules sont incubées pendant 1 heure avec les produits à tester puis le ionophore calcique A23187, est ajouté pendant 5 heures à la concentration 5µM.
# Les milieux de culture de chacun des puits sont ensuite récupérés, centrifugés à 3000 tr/mn et conservés à -80°C.
# La production de prostaglandine 6KF1α pour chacun des essais est mesurée par Kit Elisa EUROMEDEX.
# Les lots suivants ont été réalisés : • Lot témoin • Lot témoin stimulé A23187 5µM • Lactamide MEA 500µg/ml + A23187 5µM • Glycyrrhétinate de zinc 10 µg/ml + A23187 5µM • Lactamide MEA 500µg/ml/Glycyrrhétinate de zinc 10µg/ml + A23187 5µM • Stéaryl glycyrrhétinate 50µg/ml + A23187 5µM • Lactamide MEA 500µg/ml/Stéaryl glycyrrhétinate 50µg/ml + A23187 5µM • Glycyrrhétinate d'ammonium 25 µg/ml + A23187 5µM • Lactamide MEA 500 µg/ml/Glycyrrhétinate d'ammonium 25 µg/ml + A23187 5µM.
# Les résultats sont exprimés en picogrammes de prostaglandine 6KF1α pour 1x10^6 kératinocytes et par ml de culture.
# L'analyse statistique des résultats est réalisée par une analyse de variance et par le test de Dunnett.
compound,measurement,setting,value
"CC1(C)[C@@H](O)CC[C@]2(C)[C@H]3C(=O)C=C4[C@@H]5C[C@@](C)(C(=O)O)CC[C@]5(C)CC[C@@]4(C)[C@]3(C)CC[C@@H]12 [Glycyrrhétinate d'ammonium, glycyrrhétinate d'ammonium]",PG6KF1α,Glycyrrhétinate d'ammonium 25µg/ml + A23187 5µM,"80,74 ± 3,67 pg/1x10^6 kératinocytes/ml"
same,inhibition at 25 µg/mL,"Homo sapiens, Glycyrrhétinate d'ammonium 25µg/ml + A23187 5µM, n = 3, read-out: % activité / Témoin A23187",30%
"CC(O)C(=O)NCCO (stereo not shown) [Lactamide MEA, monoéthanolamide de l'acide lactique]",inhibition at 500 µg/mL,"Homo sapiens, Lactamide MEA 500µg/ml + A23187 5µM, n = 3, read-out: % activité / Témoin A23187",-8%
same,PG6KF1α,"Lactamide MEA 500µg/ml + A23187 5µM, 1 h pre-incubation","124,87 ± 11,50 pg/1x10^6 kératinocytes/ml"
"CCCCCCCCCCCCCCCCCCOC(=O)[C@@]1(C)CC[C@]2(C)CC[C@]3(C)C(=CC(=O)[C@@H]4[C@@]5(C)CC[C@H](O)C(C)(C)[C@@H]5CC[C@]43C)[C@@H]2C1 [Stéaryl glycyrrhétinate, stéaryl glycyrrhétinate]",inhibition at 50 µg/mL,"Homo sapiens, Stéaryl glycyrrhétinate 50µg/ml + A23187 5µM, n = 3, read-out: % activité / Témoin A23187",31%
same,PG6KF1α,Stéaryl glycyrrhétinate 50µg/ml + A23187 5µM,"79,87 ± 5,14 pg/1x10^6 kératinocytes/ml"
glycyrrhétinate de zinc,PG6KF1α,Glycyrrhétinate de zinc 10µg/ml + A23187 5µM,"78,37 ± 2,55 pg/1x10^6 kératinocytes/ml"
